Results reported in PubChem BioAssay (NCI).
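Five concentrations, 48 hours, 96-well plates. GI50: concentration for 50% inhibition of growth. TGI is the concentration that stops growth completely.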

Tests used:
Test in all cases: NCI anticancer screen, dose series, 48 h
CCRF-CEM leukemia = tested on: CCRF-CEM leukemia
A498 renal = tested on: A498 renal
MCF7 breast = tested on: MCF7 breast
T-47D breast = tested on: T-47D breast
MALME-3M melanoma = tested on: MALME-3M melanoma
IGROV1 ovarian = tested on: IGROV1 ovarian
SF-268 CNS = tested on: SF-268 CNS
NCI-H23 lung = tested on: NCI-H23 lung
SK-OV-3 ovarian = tested on: SK-OV-3 ovarian
NCI-H226 lung = tested on: NCI-H226 lung
LOX IMVI melanoma = tested on: LOX IMVI melanoma
SR leukemia = tested on: SR leukemia
U251 CNS = tested on: U251 CNS
HCT-116 colon = tested on: HCT-116 colon
SK-MEL-28 melanoma = tested on: SK-MEL-28 melanoma
SNB-19 CNS = tested on: SNB-19 CNS
HOP-62 NSCLC = tested on: HOP-62 NSCLC
BT-549 breast = tested on: BT-549 breast
NCI-H522 lung = tested on: NCI-H522 lung
OVCAR-5 ovarian = tested on: OVCAR-5 ovarian
COLO 205 colon = tested on: COLO 205 colon
NCI/ADR-RES ovarian = tested on: NCI/ADR-RES ovarian
OVCAR-3 ovarian = tested on: OVCAR-3 ovarian
ACHN renal = tested on: ACHN renal
SK-MEL-5 melanoma = tested on: SK-MEL-5 melanoma
CAKI-1 renal = tested on: CAKI-1 renal
NCI-H460 lung = tested on: NCI-H460 lung
MDA-MB-468 breast = tested on: MDA-MB-468 breast
RXF 393 renal = tested on: RXF 393 renal
A549 NSCLC = tested on: A549 NSCLC
HOP-92 NSCLC = tested on: HOP-92 NSCLC
SF-295 CNS = tested on: SF-295 CNS
HCT-15 colon = tested on: HCT-15 colon
MDA-MB-435 = tested on: MDA-MB-435
OVCAR-8 ovarian = tested on: OVCAR-8 ovarian
SW-620 colon = tested on: SW-620 colon
KM12 colon = tested on: KM12 colon
K-562 leukemia = tested on: K-562 leukemia
DU-145 prostate = tested on: DU-145 prostate
UACC-62 melanoma = tested on: UACC-62 melanoma
M14 melanoma = tested on: M14 melanoma
SF-539 CNS = tested on: SF-539 CNS
UACC-257 melanoma = tested on: UACC-257 melanoma
RPMI-8226 leukemia = tested on: RPMI-8226 leukemia
HCC-2998 colon = tested on: HCC-2998 colon
HS 578T breast = tested on: HS 578T breast
OVCAR-4 ovarian = tested on: OVCAR-4 ovarian
MOLT-4 leukemia = tested on: MOLT-4 leukemia
HL-60(TB) leukemia = tested on: HL-60(TB) leukemia
786-0 renal = tested on: 786-0 renal
SN12C renal = tested on: SN12C renal
PC-3 prostate = tested on: PC-3 prostate
EKVX NSCLC = tested on: EKVX NSCLC
HT29 colon = tested on: HT29 colon
TK-10 renal = tested on: TK-10 renal

## C[C@H]1[C@@H](CC(=O)N[C@@H](Cc2coc3ccccc23)B(O)O)O[C@@H]2OC3(C)CC[C@H]4[C@H](C)CC[C@@H]1[C@@]24O3
CCRF-CEM leukemia
  GI50: 2.45 µM
  TGI: 12.2 µM
A498 renal
  GI50: 4.45 µM
  TGI: 16.6 µM
MCF7 breast
  GI50: 3.49 µM
  TGI: 18.5 µM
T-47D breast
  GI50: 3.3 µM
  TGI: 16.5 µM
MALME-3M melanoma
  GI50: 1.88 µM
  TGI: 6.77 µM
IGROV1 ovarian
  GI50: 4.03 µM
  TGI: 18.9 µM
SF-268 CNS
  GI50: 4.67 µM
  TGI: > 100 µM
NCI-H23 lung
  GI50: 3.16 µM
  TGI: 14.6 µM
SK-OV-3 ovarian
  GI50: 5.37 µM
  TGI: 19.2 µM
NCI-H226 lung
  GI50: 1.3 µM
  TGI: 2.84 µM
LOX IMVI melanoma
  GI50: 1.83 µM
  TGI: 4.34 µM
SR leukemia
  GI50: 1.48 µM
  TGI: 5.16 µM
U251 CNS
  GI50: 3.78 µM
  TGI: 15.4 µM
HCT-116 colon
  GI50: 2.19 µM
  TGI: 5.56 µM
SK-MEL-28 melanoma
  GI50: 2.92 µM
  TGI: 11.5 µM
SNB-19 CNS
  GI50: 6.28 µM
  TGI: > 100 µM
HOP-62 NSCLC
  GI50: 2.8 µM
  TGI: 12.3 µM
BT-549 breast
  GI50: 1.64 µM
  TGI: 4.2 µM
NCI-H522 lung
  GI50: 1.82 µM
  TGI: 4.26 µM
OVCAR-5 ovarian
  GI50: 2.92 µM
  TGI: 13.7 µM
COLO 205 colon
  GI50: 3.07 µM
  TGI: 12.2 µM
NCI/ADR-RES ovarian
  GI50: 11.6 µM
  TGI: 26.3 µM
OVCAR-3 ovarian
  GI50: 3.07 µM
  TGI: 11.1 µM
ACHN renal
  GI50: 3.08 µM
  TGI: > 100 µM
SK-MEL-5 melanoma
  GI50: 2.29 µM
  TGI: 5.48 µM
CAKI-1 renal
  GI50: 4.2 µM
  TGI: 23.7 µM
NCI-H460 lung
  GI50: 3.89 µM
  TGI: 15.2 µM
MDA-MB-468 breast
  GI50: 1.93 µM
  TGI: 4.49 µM
RXF 393 renal
  GI50: 1.53 µM
  TGI: 3.47 µM
A549 NSCLC
  GI50: 3.66 µM
  TGI: 18.7 µM
HOP-92 NSCLC
  GI50: 3.88 µM
  TGI: 15.4 µM
SF-295 CNS
  GI50: 1.92 µM
  TGI: 6.27 µM
HCT-15 colon
  GI50: 2.22 µM
  TGI: 5.88 µM
MDA-MB-435
  GI50: 2.06 µM
  TGI: 5.03 µM
OVCAR-8 ovarian
  GI50: 9.53 µM
  TGI: 24.7 µM
SW-620 colon
  GI50: 2.69 µM
  TGI: 11.5 µM
KM12 colon
  GI50: 3.42 µM
  TGI: 11.6 µM
K-562 leukemia
  GI50: 3.25 µM
  TGI: 22.9 µM
DU-145 prostate
  GI50: 8.58 µM
  TGI: 51.6 µM
UACC-62 melanoma
  GI50: 1.89 µM
  TGI: 4.26 µM
M14 melanoma
  GI50: 2.1 µM
  TGI: 5.96 µM
SF-539 CNS
  GI50: 1.92 µM
  TGI: 4.05 µM
UACC-257 melanoma
  GI50: 1.85 µM
  TGI: 4.19 µM
RPMI-8226 leukemia
  GI50: 1.23 µM
  TGI: 5.65 µM
HCC-2998 colon
  GI50: 2.22 µM
  TGI: 4.45 µM
HS 578T breast
  GI50: 2.56 µM
  TGI: 9.97 µM
OVCAR-4 ovarian
  GI50: 6.09 µM
  TGI: > 100 µM
MOLT-4 leukemia
  GI50: 1.48 µM
  TGI: 6.61 µM
HL-60(TB) leukemia
  GI50: 2.25 µM
  TGI: 6.84 µM
786-0 renal
  GI50: 4.24 µM
  TGI: 19.2 µM
SN12C renal
  GI50: 4.07 µM
  TGI: 15.9 µM
PC-3 prostate
  GI50: 5.47 µM
  TGI: 40.1 µM
EKVX NSCLC
  GI50: 5.01 µM
  TGI: 23.6 µM
HT29 colon
  GI50: 2.27 µM
  TGI: 5.36 µM
TK-10 renal
  GI50: 2.71 µM
  TGI: 8.86 µM
